# According to patent US9409908B2 (priority 2012, dated 2016):
# Like-named read-outs stand apart in the source and are kept apart here.
# Tests used:
# [1] = rcm bond, Grubbs II, 40.0 °C
# [2] = from C=CC[C@H](NC(=O)OC(C)(C)C)c1cc(-c2ccncc2NC(=O)[C@H](C)C=C)ccn1; rcm bond; 12-membered ring; Grubbs II/pTsOH; CH2Cl2; 5.2 mM; 40.0 °C
# [3] = biological target: purified human plasma kallikrein (Homo sapiens (Human), UniProt P03952); assay: biochemical; assay type: biochemical; settings: read-out: Plasma Kallikrein Ki
# Chain of purified human plasma kallikrein (P03952 whole entry, looked up): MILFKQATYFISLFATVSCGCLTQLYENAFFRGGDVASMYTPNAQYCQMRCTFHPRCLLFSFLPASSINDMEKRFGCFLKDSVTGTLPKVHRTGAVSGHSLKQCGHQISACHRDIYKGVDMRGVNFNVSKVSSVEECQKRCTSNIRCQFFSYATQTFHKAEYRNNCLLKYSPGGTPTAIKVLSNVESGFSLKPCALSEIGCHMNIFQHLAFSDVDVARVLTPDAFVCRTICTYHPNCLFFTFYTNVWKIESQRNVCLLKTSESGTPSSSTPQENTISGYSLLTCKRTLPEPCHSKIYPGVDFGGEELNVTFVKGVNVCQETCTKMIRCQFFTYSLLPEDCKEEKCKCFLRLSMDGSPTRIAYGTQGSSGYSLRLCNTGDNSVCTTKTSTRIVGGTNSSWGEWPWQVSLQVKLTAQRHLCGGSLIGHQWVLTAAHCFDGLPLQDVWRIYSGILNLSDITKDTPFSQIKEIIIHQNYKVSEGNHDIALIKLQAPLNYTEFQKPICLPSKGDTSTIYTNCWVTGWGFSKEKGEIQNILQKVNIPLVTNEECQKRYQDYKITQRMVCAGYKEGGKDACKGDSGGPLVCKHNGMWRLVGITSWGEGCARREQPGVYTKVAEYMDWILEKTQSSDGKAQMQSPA
# Chain of purified human plasma kallikrein (P03952 whole entry partner, looked up): as the sequence (P03952 whole entry, looked up) above
# [4] = biological target: purified human Factor XIa (Homo sapiens (Human), UniProt P03951); assay: biochemical; assay type: biochemical; settings: read-out: Factor XIa Ki
# Chain of purified human Factor XIa (P03951 whole entry, looked up): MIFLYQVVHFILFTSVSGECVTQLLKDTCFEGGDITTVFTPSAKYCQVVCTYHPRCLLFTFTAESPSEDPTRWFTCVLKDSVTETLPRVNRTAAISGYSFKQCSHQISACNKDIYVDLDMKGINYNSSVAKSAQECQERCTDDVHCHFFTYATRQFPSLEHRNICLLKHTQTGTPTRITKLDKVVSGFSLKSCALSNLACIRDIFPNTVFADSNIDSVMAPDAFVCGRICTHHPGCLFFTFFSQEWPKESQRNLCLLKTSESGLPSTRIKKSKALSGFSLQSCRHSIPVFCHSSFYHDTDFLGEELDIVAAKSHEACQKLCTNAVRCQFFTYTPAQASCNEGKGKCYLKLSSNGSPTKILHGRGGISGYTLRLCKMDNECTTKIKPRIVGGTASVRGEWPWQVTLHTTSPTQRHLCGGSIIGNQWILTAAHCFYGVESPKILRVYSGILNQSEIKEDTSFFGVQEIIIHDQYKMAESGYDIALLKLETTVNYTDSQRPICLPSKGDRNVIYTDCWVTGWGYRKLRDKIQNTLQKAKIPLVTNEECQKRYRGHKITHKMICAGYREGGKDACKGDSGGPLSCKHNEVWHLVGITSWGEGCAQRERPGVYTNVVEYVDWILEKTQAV
# Chain of purified human Factor XIa (P03951 whole entry partner, looked up): as the sequence (P03951 whole entry, looked up) above
smiles,measurement,setting,value
COC(=O)Nc1ccc2c(c1)C(=O)NC/C=C/C[C@H](NC(=O)OC(C)(C)C)c1cc-2ccn1,"ring closure, yield of all isomers","[1]; from C=CCNC(=O)c1cc(NC(=O)OC)ccc1-c1ccnc([C@H](CC=C)NC(=O)OC(C)(C)C)c1, DCM, […], 3.0 h",39.4%
C[C@@H]1/C=C/C[C@H](NC(=O)OC(C)(C)C)c2cc(ccn2)-c2ccccc2NC1=O,"ring closure, yield of all isomers","[1]; from C=CC[C@H](NC(=O)OC(C)(C)C)c1cc(-c2ccccc2NC(=O)[C@H](C)C=C)ccn1, dichloromethane, 11.8 mM, 4.5 h",78%
COC(=O)Nc1ccc2c(c1)NC(=O)[C@H](C)/C=C/C[C@H](NC(=O)OC(C)(C)C)c1nc-2cn1COCC[Si](C)(C)C,"ring closure, yield of all isomers","[1]; from C=CC[C@H](NC(=O)OC(C)(C)C)c1nc(-c2ccc(NC(=O)OC)cc2NC(=O)[C@H](C)C=C)cn1COCC[Si](C)(C)C, dichloromethane, 9.73 mM, 21.5 h",74%
C[C@@H]1/C=C/C[C@H](NC(=O)OC(C)(C)C)c2cc(ccn2)-c2ccncc2NC1=O,"ring closure, yield of all isomers","[1]; from C=CC[C@H](NC(=O)OC(C)(C)C)c1cc(-c2ccncc2NC(=O)[C@H](C)C=C)ccn1, CH2Cl2, 5.06 mM, 24.0 h",7.3%
same,"ring closure, yield after HPLC",[2],7.3%
"COC(=O)c1ccc2c(c1)-c1ccnc(c1)[C@@H](N1CCC(c3c(F)ccc(Cl)c3F)=CC1=O)CCC[C@@H](C)C(=O)N2 [Example 144, Methyl (10R,14S)-14-[4-(3-chloro-2,6-difluorophenyl)-6-oxo-1,2,3,6-tetrahydropyridin-1-yl]-10-methyl-9-oxo-8,16-diazatricyclo[13.3.1.0^2,7]nonadeca-1(19),2(7),3,5,15,17-hexaene-4-carboxylate]",Ki,[3],108 nM
same,Ki,[4],186 nM
